In patent US20230053307A1, “METHOD FOR PREVENTING OR TREATING SKIN DISORDERS AND CONDITIONS” (BUDDHIST TZU CHI MEDICAL FOUNDATION, priority 2021, published 2023):

Experiments:
[1] = test system: primary human keratinocytes; experiment: Western blotting of CKI-treated primary human keratinocytes; format: cell-based; conditions: 72 hours
Method: FIGS. 4A to 4G show the effect of CKI treatment on human primary keratinocytes and melanocytes. […] In FIG. 4B, the primary human keratinocytes were treated with indicated concentrations of CKI when the cell confluence was 90%. […] Statistical results from a total of 3 independent experiments were determined with unpaired t-test analysis and shown as mean±SD. “NS” indicates no significant difference and asterisks *** indicates a significant difference with P<0.001. In FIGS. 4D and 4E, the primary melanocytes were cultured in conditional medium that have cultured keratinocytes for 3 days and treated with or without CKI.
FIGS. 7A to 7C show the effects of additional casein kinase 1 inhibitors including A51, CKI7, D4476 and IC261 on the Kit pathway and melanogenesis-related protein expression levels of human keratinocytes.
(§1) Western blot For experiments involving tissues, the tissues were homogenized and lysed in 1x tissue protein extraction reagent (Thermo Fisher) containing protease inhibitor (Millipore) and kept on ice; for experiments involving cells, cell pellet was collected and lysed in 1x radioimmunoprecipitation assay (RIPA) lysis buffer containing protease inhibitor (Millipore) and kept on ice. The total protein concentration was determined using Protein Assay Dye Reagent Concentrate (Bio-Rad) following manufacturer's instruction with a microplate reader. Sample was diluted in SDS-PAGE Sample Buffer (Bio-Rad) and heated at 95° C. for 5 minutes. The protein sample was then resolved on SDS-PAGE gels (TGX FastCast acrylamide solutions, Bio-Rad) and transferred onto poly(vinylidene fluoride) (PVDF) membranes (Millipore). 5% BSA was used, and then the membranes were incubated with primary antibodies overnight at 4° C. The membranes were then washed by Tris-buffered saline with Tween 20 (TBST) and incubated with secondary antibodies for 1 hour at room temperature. The signal was detected using iBright FL1000 Imaging System from Thermo Fisher Scientific.
Cell culture Human keratinocyte and melanocyte were cultured from human foreskin. The keratinocyte was cultured with keratinocyte serum-free medium (SFM), or K-SFM, which is a complete serum-free medium and supplemented with human recombinant epidermal growth factor (rEGF) and bovine pituitary extract (BPE) (Gibco, 17005042) at the time of use. Melanocyte was cultured with Medium 254 containing human melanocyte growth supplement (HMGS) (Gibco, M254500). The culture was maintained at 37° C. and in 5% CO2. Keratinocyte Kit ligand secretion was detected by Human SCF ELISA Kit (Abcam, ab176109). All of the procedures followed manufacturer's instruction.
In skin, keratinocyte interacts with melanocyte through a system of paracrine growth factors and cell-cell adhesion junction for a stable skin homeostatic balance. In this embodiment, primary cultures of keratinocyte and melanocyte were prepared from human foreskin. The primary human keratinocytes were treated with indicated concentration of CKI for 3 days, and the conditional medium was collected and used to treat melanocytes for 3 days.
Additional casein kinase 1 inhibitors were used to examine their effects on KitL production with human keratinocyte cultures. […] A51 was a CKI gifted by Dr. Yinon Ben-Neriah, and […] (Sigma-Aldrich D1944) and IC261 (Sigma-Aldrich 400090) were commercially available and were dissolved in DMSO. CKI7 was another CKI commercially available (Sigma-Aldrich C0742) and was dissolved in ddH20. […] Expression of KitL was increased in CKI, CKI7, D4476 and IC261 after treatment for 72 hours, compared to DMSO or mock. Mock was a control in the experiment where the keratinocytes were neither treated with DMSO or any CKI. In FIG. 7B, it was further shown that D4476 treatment at concentrations of from 500 nM to 5,000 nM on human keratinocytes increases the expression of p53 and KitL […] in treated keratinocytes after 72 hours. […]

CPD = experiment: UVB-induced CPD in human skin explants; format: cell-based; conditions: 0.08 mg of D4476; 6 hours after 1,000 mJ/cm^2 UVB
Method: (§2) The specimen was cultured in the 12-well plate (N=5). After 24 hours of explant culture, the specimen was treated with 0.01 mg CKI, and another treatment of 0.01 mg CKI was given two days thereafter, as shown in the timeline. On the 5th day, the specimens were exposed under 1 J/cm^2 UVB light. Samples were harvested 6 hours later. […] Moreover, frozen embedding in OCT was also made for IHC analysis for Melan-A and Trp-1 labelling.
(§3) The numbers of Melan-A+cells and Trip-1+cells and also the relative melanin intensity in the control or CKI treatment groups are quantified in the histograms. […] The asterisks *** indicated a significant difference with P<0.001.
(§4) FIGS. 6A to 6E show the UV protection effect of topical treatment of another CKI, D4476, on human skin explants. […] FIGS. 6C and 6D show the Western blotting analysis results and the quantitated amount, respectively, of the expression levels of proteins in the c-Kit pathway and melanogenesis-related protein.
In the immunohistochemical analysis shown in FIG. 3C, both Melan-A and Trp-1, the markers for melanocyte, were found increased in the staining. […] In addition, human skin explants after topical CKI treatment were exposed to 1 J/cm^2 UVB irradiation, and collected for CPD analysis 6 hours later. […]

[2] = test system: p53 and pigmentation-related proteins; experiment: Western blotting of human skin explant epidermis; format: cell-based; conditions: 0.1 mg of D4476, human skin explant, vs control
Excerpt: as §3
In addition, the epidermis and dermis were separated by thermolysin. The total proteins of epidermis were extracted by T-PER Tissue Protein Extraction Reagent (78510, Thermo Fisher) for Western blotting analysis.
as §1

[3] = test system: KitL/c-Kit pathway and melanocyte-related targets; experiment: Western blotting of ear skin, MC1R mutant mice; format: in vivo, mouse; conditions: topical, total 0.24 mg over 2 weeks, ear skin at 3rd week
Method: FIGS. 2A to 2L show the effects of CK1α ablation in keratinocytes of MC1R mutant mice and the UV protection effect of topical CKI treatment on MC1R mutant mice. […] The skin samples were treated as illustrated in the scheme and harvested after 24 hours of 750 mJ/cm^2 UVB irradiation on day 21 and stained with anti-CPD antibody for examining the DNA damage.
FIGS. 5A and 5B show the effect of D4476 and IC261 treatments on MC1R mutant mice.
as §1

human foreskin explants = experiment: Human skin explant: colour, Fontana-Masson staining, Melan-A and Trp-1 IHC; format: cell-based; conditions: D4476, human skin explant
Method: as §2, §4
For topical use on human skin explant, a CKI solution containing 1 mg in 6 μL DMSO was diluted with 594 μL phosphate buffered saline (PBS) for further use. The final working concentration is 0.01 mg/6 μL.
Human skin explant The human foreskins were used for in vitro explant culture experiments. […]
Primary antibody was applied in 4° C. overnight, and then incubated with secondary antibody at room temperature for 30 minutes. The signal was detected by AEC+Substrate-Chromogen (K346111, Dako) or Dako REAL EnVDetectSys Perox/DAB+, Rb/M (K500711, Dako), counterstained with hematoxylin and mounted with either aqueous- or organic-based medium. […]

[4] = compared to DMSO or mock (FIG. 7A)
[5] = 500 nM to 5,000 nM, dose-independently

Compound | expression of KitL [1, 4] | expression of KitL [1, 5] | expression of p53 [1, 5] | CPD staining (CPD) | KitL (Western blotting) [2] | c-Kit (Western blotting) [2] | p53 (Western blotting) [2] | tyrosinase (Western blotting) [2] | β-catenin (Western blotting) [2] | expression of Kit-L [3] | expression of c-Kit [3] | expression of tyrosinase [3] | melanin intensity in epidermis (Fontana-Masson staining) (human foreskin explants)
NCCNS(=O)(=O)c1ccc(Cl)c2ccncc12 [CKI7] | increased | – | – | – | – | – | – | – | – | – | – | – | –
NC(=O)c1ccc(-c2nc(-c3ccc4c(c3)OCCO4)c(-c3ccccn3)[nH]2)cc1 [D4476] | increased | increases | increases | reduced | increased | increased | stabilization | increased | stabilization | increased | increased | increased | increased
COc1cc(OC)c(C=C2C(O)=Nc3ccccc32)c(OC)c1 [IC261] | increased | increases | increases | – | – | – | – | – | – | increased | increased | increased | –
